For assay [1], the system named is TNFα secretion from stimulated white blood cells. The assay is described as follows: TNFα ELISA, white blood cells stimulated with phorbol 12-myristate 13-acetate and ionomycin. To be noted: PMA/ionomycin. The assay is classed as cell-based, human. Details: inhibition of TNFα secretion: dose or concentration left out as unconfirmed. On the procedure:
(§1) Stock solutions at 1.6 mg/ml of alprostadil, and 4.0 mg/ml of […] (Sigma-Aldrich, St. Louis, Mo.; catalog numbers P5515 and R-2625, respectively) were made in dimethylsulfoxide (DMSO). The alprostadil master plates were made by adding 25 μl of the concentrated stock solution to columns 3, 9, and 15 (rows C through N) of a polypropylene 384-well storage plate that had been pre-filled with 75 μl of anhydrous DMSO. Using a TomTec Quadra Plus liquid handler, the 25 μl of alprostadil stock solution was serially diluted four times into the adjacent columns (columns 4-7, 10-13, 16-19). […] The tretinoin master plates were made by adding 25 μl of the concentrated stock solution to the appropriate wells (row C, columns 3-8; row C, columns 9-14; row C, columns 15-20; row I, columns 3-8; row I, columns 9-14; row I, columns 15-20) of the appropriate master polypropylene 384-well storage plate. These master plates had been pre-filled with 75 μl of anhydrous DMSO. Using the TomTec Quadra Plus liquid handler, the 25 μl was serially diluted four times in the adjacent rows (rows D-G, and J-M). […] Master plates were sealed and stored at −20° C. until ready for use.
The final alprostadil/tretinoin combination plates were generated by transferring 1 μl from each of the alprostadil and tretinoin master plates to a dilution plate containing 100 μl of media (RPMI; Gibco BRL, #11875-085), 10% Fetal Bovine Serum (Gibco BRL, #25140-097), 2% Penicillin/Streptomycin (Gibco BRL, #15140-122)) using the TomTec Quadra Plus liquid handler. This dilution plate was then mixed and a 10 μl aliquot transferred to the final assay plate, which had been pre-filled with 40 μl/well RPM media containing the appropriate stimulant to activate TNFα secretion (see below).
(§2) The compound dilution matrix was assayed using a TNFα ELISA method. Briefly, a […] suspension of diluted human white blood cells contained within each well of a polystyrene 384-well plate (NalgeNunc) was stimulated to secrete TNFα by treatment with a final concentration of 10 ng/ml phorbol 12-myristate 13-acetate (Sigma) and 750 ng/ml ionomycin (Sigma). Various concentrations of each test compound were added at the time of stimulation. After 16-18 hours of incubation at 37° C. in a humidified incubator, the plate was centrifuged and the supernatant transferred to a white opaque polystyrene 384 well plate (NalgeNunc, Maxisorb) coated with an anti-TNFα antibody (PharMingen, #18631D). After a two-hour incubation, the plate was washed (Tecan PowerWasher 384) with phosphate buffered saline (PBS) containing 0.1% Tween 20 (polyoxyethylene sorbitan monolaurate) and incubated for an additional one hour with another anti-TNFα antibody that was biotin labeled (PharMingen, 18642D) and horseradish peroxidase (HRP) coupled to strepavidin (PharMingen, #13047E).). After the plate was washed with 0.1% Tween 20/PBS, an HRP-luminescent substrate was added to each well and light intensity measured using a LJL Analyst plate luminometer. Sets of control wells contained a serial dilution of Cyclosporin A (Sigma) starting at a final concentration of 0.5 μg/ml.
The combination of 0.052 μM tretinoin and 0.004 μM alprostadil was able to suppress TNFα secretion by 42%. […] Maximal tretinoin efficacy (−36% TNFα suppression) is therefore maintained while reducing the concentration of total drug species by greater than 90% (0.052 μM tretionoin+0.004 μM alprostadil compared to 0.832 μM tretinoin alone).
In general terms: In an ELISA, binding on a coated surface is turned into a signal by an enzyme label.

For assay [2] the test system is unchanged. Nature of the assay: Secondary screen, TNFα ELISA, white blood cells stimulated using 1 μg/ml LPS. The assay is classed as cell-based, human. On the procedure: as §1
This dilution plate was then mixed and a 10 μl aliquot transferred to the final assay plate, which had been pre-filled with 40 μl/well RPM media containing the appropriate stimulant to activate TNFα secretion (see below).
as §2
In this experiment, white blood cells were stimulated using 1 μg/ml LPS.

Setting [3] is: Homo sapiens, Tretinoin 0.052 μM alone.
The mark [4] stands for this setting: Homo sapiens, Tretinoin 0.208 μM alone.
The mark [5] stands for this setting: Homo sapiens, Tretinoin 0.832 μM alone.
Where [6] appears, read: Homo sapiens, Tretinoin 3.329 μM alone.
[7] abbreviates: Homo sapiens, Tretinoin 13.316 μM alone.
The mark [8] stands for this setting: Homo sapiens, Alprostadil 0.004 μM alone.
The mark [9] stands for this setting: Homo sapiens, Alprostadil 0.018 μM alone.
The mark [10] stands for this setting: Homo sapiens, Alprostadil 0.071 μM alone.

Regarding `CC1=C(/C=C/C(C)=C/C=C/C(C)=C/C(=O)O)C(C)(C)CCC1` [Tretinoin, 3,7-dimethyl-9-(2,6,6-trimethylcyclohex-1-enyl)nona-2,4,6,8-all-trans-tetraenoic acid], the inhibition (in general, the percentage by which the read-out fell short of the control) at 0.052 µM in assay [1] (setting [3]) was 13.8%; in assay [2] (setting [3]), 32.7%. In addition, the inhibition at 0.208 µM in assay [1] (setting [4]) was 28.7%; in assay [2] (setting [4]) it was 32.5%. Moreover, the inhibition at 0.832 µM worked out at 34.5% in assay [1] (setting [5]) and 38.4% in assay [2] (setting [5]). In addition, the inhibition at 3.329 µM in assay [1] (setting [6]) is 34.1%; in assay [2] (setting [6]), 44.1%. The figures for the inhibition at 13.316 µM in assay [1] (setting [7]) and in assay [2] (setting [7]) were 36.2% and 52.1%, respectively. The “maximal inhibition of TNFα secretion” value in assay [1] (tretinoin alone, concentrations ranging from 0.83-13.3 μM) worked out at 36%. Moreover, the inhibition at 0.104 µM in assay [2] (Homo sapiens, Tretinoin 0.104 μM alone) worked out at 35.1%. Also, in assay [2] (Homo sapiens, Tretinoin 0.416 μM alone), testing at 0.416 µM gave an inhibition of 32.7%. Besides, the inhibition at 1.664 µM in assay [2] (Homo sapiens, Tretinoin 1.664 μM alone) was determined as 37.6%. In addition, the inhibition at 6.658 µM in assay [2] (Homo sapiens, Tretinoin 6.658 μM alone) was 48.7%. For the same molecule, in assay [2] (tretinoin alone, concentrations from 6.7-13.3 μM), the TNFα inhibition result is “approximately 50%”.

On to `CCCCC[C@H](O)/C=C/[C@H]1[C@H](O)CC(=O)[C@@H]1CCCCCCC(=O)O` [Alprostadil, (11α, 13E, 15S)-11,15-dihydroxy-9-oxoprost-13-enoic acid], for which the inhibition at 0.004 µM in assay [1] (setting [8]) is 33.3%; in assay [2] (setting [8]) it was 44.6%. In addition, the inhibition at 0.018 µM in assay [1] (setting [9]) was 39.8%; in assay [2] (setting [9]), 54.8%. Moreover, the inhibition at 0.071 µM worked out at 50.5% in assay [1] (setting [10]) and 71.5% in assay [2] (setting [10]). Also, the inhibition at 0.283 µM in assay [1] (Homo sapiens, Alprostadil 0.283 μM alone) turned out to be 53.8%. In assay [1] (Homo sapiens, Alprostadil 1.130 μM alone), the inhibition at 1.13 µM was found to be 56.8%. Further, the “inhibition of TNFα secretion” value in assay [1] (alprostadil alone) is given as 57%. This molecule also had an inhibition at 0.009 µM in assay [2] (Homo sapiens, Alprostadil 0.009 μM alone) of 49.2%. Also, at 0.035 µM the inhibition in assay [2] (Homo sapiens, Alprostadil 0.035 μM alone) was 57.3%. Also, in assay [2] (Homo sapiens, Alprostadil 0.141 μM alone), 0.141 µM produced 74.3% inhibition. In addition, the inhibition at 0.282 µM in assay [2] (Homo sapiens, Alprostadil 0.282 μM alone) was 75.7%. In addition, the inhibition at 0.564 µM in assay [2] (Homo sapiens, Alprostadil 0.564 μM alone) was determined as 79.5%. Moreover, the inhibition at 1.128 µM in assay [2] (Homo sapiens, Alprostadil 1.128 μM alone) came to 81.6%. The “alprostadil concentration needed alone to attain 64.0% TNFα inhibition” value in assay [2] (alprostadil alone) is not below 0.035 µM. The “maximal TNFα-inhibitory effect” value in assay [2] (alprostadil alone, concentration of at least 1.128 μM) is 82%.
